US9346809B2 (LEO PHARMA A/S, priority 2009, dated 2016)

Columns and labels:
Assay type in all cases: biochemical
[1] = biological target: T1, JAK1 (aa 850-1154, catalytic domain, GST-tag) (Homo sapiens, UniProt P23458); test: JAK kinase assay (HTRF, phosphorylation of TK substrate-biotin), JAK1; settings: ATP at Km (7 μM); read-out: JAK1 kinase inhibitory activity (EC50 indicator)
T1 construct: JAK1 (aa 850-1154) and TYK2 (aa 871-1187) are expressed with an N-terminally fused GST-tag; GST (N); purchased Carna Biosciences, Inc; host or cells: baculovirus expression system
Method in brief: (§1)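 Compound was mixed with TK substrate-biotin (1 μM final), then kinase plus ATP at its Km was added and left 20-30 min at room temperature. Detection mix with EDTA, Streptavidin-XL665 and STK Ab Cryptate stopped the reaction; after overnight dark incubation, HTRF was read and EC50 derived.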

[2] = biological target: T2, JAK2 (catalytic domain, His-tag) (Homo sapiens, UniProt O60674); test: JAK kinase assay (HTRF, phosphorylation of TK substrate-biotin), JAK2; settings: ATP at Km (4 μM); read-out: JAK2 kinase inhibitory activity (EC50 indicator)
T2 construct: All four purified enzymes contain only the catalytic domain; His (N); purchased Carna Biosciences, Inc; host or cells: baculovirus expression system
Method in brief: as §1

[3] = biological target: T3, JAK3 (catalytic domain, His-tag) (Homo sapiens, UniProt P52333); test: JAK kinase assay (HTRF, phosphorylation of TK substrate-biotin), JAK3; settings: ATP at Km (2 μM); read-out: JAK3 kinase inhibitory activity (EC50 indicator)
T3 construct: All four purified enzymes contain only the catalytic domain; His (N); purchased Carna Biosciences, Inc; host or cells: baculovirus expression system
Method in brief: as §1

[4] = biological target: T4, TYK2 (aa 871-1187, catalytic domain, GST-tag) (Homo sapiens, UniProt P29597); test: JAK kinase assay (HTRF, phosphorylation of TK substrate-biotin), TYK2; settings: ATP at Km (13 μM); read-out: TYK2 kinase inhibitory activity (EC50 indicator)
T4 construct: JAK1 (aa 850-1154) and TYK2 (aa 871-1187) are expressed with an N-terminally fused GST-tag; GST (N); purchased Carna Biosciences, Inc; host or cells: baculovirus expression system
T4 sequence (P29597 871-1187): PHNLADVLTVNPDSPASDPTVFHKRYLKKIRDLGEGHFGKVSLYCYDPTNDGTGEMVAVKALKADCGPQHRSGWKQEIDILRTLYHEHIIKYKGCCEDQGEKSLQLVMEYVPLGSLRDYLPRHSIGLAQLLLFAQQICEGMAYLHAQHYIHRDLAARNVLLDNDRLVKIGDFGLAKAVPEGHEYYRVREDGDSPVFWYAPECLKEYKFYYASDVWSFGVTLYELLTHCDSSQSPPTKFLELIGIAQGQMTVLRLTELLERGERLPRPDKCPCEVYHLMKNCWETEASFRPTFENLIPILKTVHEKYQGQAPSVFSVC
Method in brief: as §1

T3 sequence (P52333 822-1111 limits assumed): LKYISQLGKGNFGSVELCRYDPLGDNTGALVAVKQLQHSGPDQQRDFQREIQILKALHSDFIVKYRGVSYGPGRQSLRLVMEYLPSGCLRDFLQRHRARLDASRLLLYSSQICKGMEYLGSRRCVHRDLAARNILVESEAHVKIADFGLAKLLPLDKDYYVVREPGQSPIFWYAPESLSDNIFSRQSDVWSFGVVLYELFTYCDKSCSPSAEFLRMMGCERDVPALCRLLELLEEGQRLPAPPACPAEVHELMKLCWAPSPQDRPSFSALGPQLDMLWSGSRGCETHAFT
T2 sequence (O60674 849-1124 limits assumed): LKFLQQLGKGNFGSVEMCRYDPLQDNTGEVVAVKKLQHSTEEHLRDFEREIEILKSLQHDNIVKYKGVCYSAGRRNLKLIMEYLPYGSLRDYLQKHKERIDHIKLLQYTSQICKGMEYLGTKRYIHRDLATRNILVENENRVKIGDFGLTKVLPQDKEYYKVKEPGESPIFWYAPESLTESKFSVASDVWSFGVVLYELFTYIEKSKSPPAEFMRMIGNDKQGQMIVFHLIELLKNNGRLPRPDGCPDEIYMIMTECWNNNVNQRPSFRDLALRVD
T1 sequence (P23458 850-1154): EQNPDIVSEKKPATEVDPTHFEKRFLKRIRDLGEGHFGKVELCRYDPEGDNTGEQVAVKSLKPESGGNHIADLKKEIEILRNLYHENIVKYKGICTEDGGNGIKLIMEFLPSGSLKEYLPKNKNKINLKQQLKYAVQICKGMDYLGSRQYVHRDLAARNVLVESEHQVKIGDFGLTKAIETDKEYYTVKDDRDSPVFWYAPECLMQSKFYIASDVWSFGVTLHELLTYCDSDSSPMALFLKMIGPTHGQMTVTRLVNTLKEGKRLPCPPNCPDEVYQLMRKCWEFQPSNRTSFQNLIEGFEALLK

EC50 [1] [nM]	EC50 [2] [nM]	EC50 [3] [nM]	EC50 [4] [nM]	SMILES
< 100	< 100	100 to 500	> 500	O=C(c1cc2c(s1)CCC2)N1C2CCC1CN(c1ncnc3[nH]ccc13)C2 [Example 139, (5,6-Dihydro-4H-cyclopenta[b]thiophen-2-yl)-[3-(7H-pyrrolo[2,3-d]pyrimidin-4-yl)-3,8-diaza-bicyclo[3.2.1]oct-8-yl]-methanone]
< 100	< 100	< 100	> 500	O=C(c1cc2cc(F)cc(F)c2[nH]1)N1C2CCC1CN(c1ncnc3[nH]ccc13)C2 [Example 140, (5,7-Difluoro-1H-indol-2-yl)-[3-(7H-pyrrolo[2,3-d]pyrimidin-4-yl)-3,8-diaza-bicyclo[3.2.1]oct-8-yl]-methanone]
< 100	< 100	< 100	> 500	Cn1c(C(=O)N2C3CCC2CN(c2ncnc4[nH]ccc24)C3)ccc1S(N)(=O)=O [Example 141, 1-Methyl-5-[3-(7H-pyrrolo[2,3-d]pyrimidin-4-yl)-3,8-diaza-bicyclo[3.2.1]octane-8-carbonyl]-1H-pyrrole-2-sulfonic acid amide]
< 100	< 100	< 100	100 to 500	Cn1cc(S(N)(=O)=O)cc1C(=O)N1C2CCC1CN(c1ncnc3[nH]ccc13)C2 [Example 142, 1-Methyl-5-[3-(7H-pyrrolo[2,3-d]pyrimidin-4-yl)-3,8-diaza-bicyclo[3.2.1]octane-8-carbonyl]-1H-pyrrole-3-sulfonic acid amide]
< 100	< 100	< 100	> 500	NS(=O)(=O)CCCC(=O)N1CCN(c2ncnc3[nH]ccc23)CC12CC2 [Example 143, 4-Oxo-4-[7-(7H-pyrrolo[2,3-d]pyrimidin-4-yl)-4,7-diaza-spiro[2.5]oct-4-yl]-butane-1-sulfonic acid amide]
100 to 500	< 100	> 500	> 500	O=C(C1CCOC1)N1C2CCC1CN(c1ncnc3[nH]ccc13)C2 (stereo not drawn) [Example 144, [3-(7H-Pyrrolo[2,3-d]pyrimidin-4-yl)-3,8-diaza-bicyclo[3.2.1]oct-8-yl]-(tetrahydro-furan-3-yl)-methanone]
< 100	< 100	100 to 500	100 to 500	CC1CN(C(=O)c2cccc(C#N)c2)C2(CC2)CN1c1ncnc2[nH]ccc12 (stereo not drawn) [Example 145, 3-[6-Methyl-7-(7H-pyrrolo[2,3-d]pyrimidin-4-yl)-4,7-diaza-spiro[2.5]octane-4-carbonyl]-benzonitrile]
100 to 500	< 100	100 to 500	> 500	CC1CN(C(=O)Cc2cccc(C#N)c2)C2(CC2)CN1c1ncnc2[nH]ccc12 (stereo not drawn) [Example 146, 3-{2-[6-Methyl-7-(7H-pyrrolo[2,3-d]pyrimidin-4-yl)-4,7-diaza-spiro[2.5]oct-4-yl]-2-oxo-ethyl}-benzonitrile]
< 100	< 100	< 100	< 100	CC1CN(C(=O)Cc2ccc(C#N)cc2)C2(CC2)CN1c1ncnc2[nH]ccc12 (stereo not drawn) [Example 147, 4-{2-[6-Methyl-7-(7H-pyrrolo[2,3-d]pyrimidin-4-yl)-4,7-diaza-spiro[2.5]oct-4-yl]-2-oxo-ethyl}-benzonitrile]
< 100	< 100	100 to 500	> 500	CC1CN(C(=O)c2ccc(C#N)cc2)C2(CC2)CN1c1ncnc2[nH]ccc12 (stereo not drawn) [Example 148, 4-[6-Methyl-7-(7H-pyrrolo[2,3-d]pyrimidin-4-yl)-4,7-diaza-spiro[2.5]octane-4-carbonyl]-benzonitrile]
< 100	< 100	100 to 500	100 to 500	CC1CN(C(=O)C2(C#N)CC2)C2(CC2)CN1c1ncnc2[nH]ccc12 (stereo not drawn) [Example 149, 1-[6-Methyl-7-(7H-pyrrolo[2,3-d]pyrimidin-4-yl)-4,7-diaza-spiro[2.5]octane-4-carbonyl]-cyclopropanecarbonitrile]
< 100	< 100	< 100	> 500	CC1CN(C(=O)CCC#N)C2(CC2)CN1c1ncnc2[nH]ccc12 (stereo not drawn) [Example 150, 4-[6-Methyl-7-(7H-pyrrolo[2,3-d]pyrimidin-4-yl)-4,7-diaza-spiro[2.5]oct-4-yl]-4-oxo-butyronitrile]
100 to 500	100 to 500	> 500	> 500	CC(=O)NCC(=O)N1CCN(c2ncnc3[nH]ccc23)CC12CC2 [Example 151, N-{2-Oxo-2-[7-(7H-pyrrolo[2,3-d]pyrimidin-4-yl)-4,7-diaza-spiro[2.5]oct-4-yl]-ethyl}-acetamide]
< 100	< 100	< 100	100 to 500	O=C(Cc1ccccc1)N1CCN(c2ncnc3[nH]ccc23)CC12CC2 [Example 152, 2-Phenyl-1-[7-(7H-pyrrolo[2,3-d]pyrimidin-4-yl)-4,7-diaza-spiro[2.5]oct-4-yl]-ethanone]
< 100	< 100	100 to 500	> 500	O=C(CCc1ccccc1)N1CCN(c2ncnc3[nH]ccc23)CC12CC2 [Example 153, 3-Phenyl-1-[7-(7H-pyrrolo[2,3-d]pyrimidin-4-yl)-4,7-diaza-spiro[2.5]oct-4-yl]-propan-1-one]
100 to 500	< 100	> 500	> 500	O=C(N1CCN(c2ncnc3[nH]ccc23)CC12CC2)C1(c2ccccc2)CC1 [Example 154, (1-Phenyl-cyclopropyl)-[7-(7H-pyrrolo[2,3-d]pyrimidin-4-yl)-4,7-diaza-spiro[2.5]oct-4-yl]-methanone]
< 100	< 100	100 to 500	100 to 500	O=C(c1ccc(CO)cc1)N1CCN(c2ncnc3[nH]ccc23)CC12CC2 [Example 155, (4-Hydroxymethyl-phenyl)-[7-(7H-pyrrolo[2,3-d]pyrimidin-4-yl)-4,7-diaza-spiro[2.5]oct-4-yl]-methanone]
< 100	< 100	< 100	100 to 500	O=C(c1ccc2[nH]ccc2c1)N1CCN(c2ncnc3[nH]ccc23)CC12CC2 [Example 157, (1H-Indol-5-yl)-[7-(7H-pyrrolo[2,3-d]pyrimidin-4-yl)-4,7-diaza-spiro[2.5]oct-4-yl]-methanone]
100 to 500	< 100	100 to 500	> 500	O=C([C@H]1CC[C@H](O)CC1)N1CCN(c2ncnc3[nH]ccc23)CC12CC2 [Example 158, (4-Hydroxy-cyclohexyl)-[7-(7H-pyrrolo[2,3-d]pyrimidin-4-yl)-4,7-diaza-spiro[2.5]oct-4-yl]-methanone]
< 100	< 100	100 to 500	100 to 500	O=C(c1cccc2[nH]ccc12)N1CCN(c2ncnc3[nH]ccc23)CC12CC2 [Example 159, (1H-Indol-4-yl)-[7-(7H-pyrrolo[2,3-d]pyrimidin-4-yl)-4,7-diaza-spiro[2.5]oct-4-yl]-methanone]
< 100	< 100	100 to 500	100 to 500	O=C(c1cccc(OC(F)(F)F)c1)N1CCN(c2ncnc3[nH]ccc23)CC12CC2 [Example 160, [7-(7H-Pyrrolo[2,3-d]pyrimidin-4-yl)-4,7-diaza-spiro[2.5]oct-4-yl]-(3-trifluoromethoxy-phenyl)-methanone]
< 100	< 100	< 100	< 100	O=C(c1cnc2ccccc2n1)N1CCN(c2ncnc3[nH]ccc23)CC12CC2 [Example 161, [7-(7H-Pyrrolo[2,3-d]pyrimidin-4-yl)-4,7-diaza-spiro[2.5]oct-4-yl]-quinoxalin-2-yl-methanone]
< 100	< 100	100 to 500	> 500	O=C(c1ccc2[nH]cnc2c1)N1CCN(c2ncnc3[nH]ccc23)CC12CC2 [Example 162, (1H-Benzoimidazol-5-yl)-[7-(7H-pyrrolo[2,3-d]pyrimidin-4-yl)-4,7-diaza-spiro[2.5]oct-4-yl]-methanone]
< 100	< 100	> 500	100 to 500	O=C(c1cnc2ccccc2c1)N1CCN(c2ncnc3[nH]ccc23)CC12CC2 [Example 163, [7-(7H-Pyrrolo[2,3-d]pyrimidin-4-yl)-4,7-diaza-spiro[2.5]oct-4-yl]-quinolin-3-yl-methanone]
